Consider two compounds from patent US20190365626A1, “HIGHLY EFFECTIVE PHOTOPROTECTIVE AGENTS” (3V Sigma S.P.A., priority 2018, published 2019).

The structures appear in SMILES notation. A value given as a limit tells only on which side of the number the result lay.

Series [1] can be described thus: specific extinction E^11 (1% solution, 1 cm optical path). In kind it is physicochemical. The following applies: at 328 nm; solution containing 1% of the product, optical path of 1 cm. An excerpt: The efficacy of UV absorbers is characterised by the parameter E^11 (or E11), which corresponds to the extinction value measured at the maximum absorption wavelength of a solution containing 1% of the product in question, measured with an optical path of 1 cm. Such extinction is called “specific extinction”.

Series [2] can be described thus: Solubility Test in emollients (cosmetic solvents). The series is classed as physicochemical. The protocol: The solubility of the sunscreens obtained in example 2 and (comparative) example 3 were evaluated in various emollients commonly used in suncare and daily skincare products: C12-15 alkyl benzoate, dibutyl adipate, caprylic/capric triglyceride and ethylhexyl salicylate.

Where [3] appears, read: in Caprylic/Capric Triglyceride.

With `CCCCC(CC)COC(=O)c1ccc(Nc2nc(Nc3ccc(-c4nc5cc(C(C)(C)CC)ccc5o4)cc3)nc(Nc3ccc(-c4nc5cc(C(C)(C)CC)ccc5o4)cc3)n2)cc1` (stereo not shown) [Example 2], in series [1], the “E^11 extinction” value turned out to be 1431. The solubility is listed as 15% w/w % in series [2] (in C12-15 Alkyl Benzoate), 15% w/w % in series [2] (setting [3]), 20% w/w % in series [2] (in Dibutyl Adipate) and 25% w/w % in series [2] (in Ethylhexyl Salicylate).
As to `CCCCC(CC)COC(=O)c1ccc(Nc2nc(Nc3ccc(-c4nc5cc(C(C)(C)C)ccc5o4)cc3)nc(Nc3ccc(-c4nc5cc(C(C)(C)C)ccc5o4)cc3)n2)cc1` (stereo not shown) [Example 3], the “E^11 extinction” value in series [1] is listed as 1395. The solubility is 5% w/w % in series [2] (in C12-15 Alkyl Benzoate), less than 5% w/w % in series [2] (setting [3]), 5% w/w % in series [2] (in Dibutyl Adipate) and 10% w/w % in series [2] (in Ethylhexyl Salicylate).
